Laboratory results reported in patent US20140296170A1, “PHARMACEUTICAL COMPOSITION FOR PREVENTION OR TREATMENT OF BONE DISEASES COMPRISING SPINASTEROL GLUCOSIDE DERIVATIVE” (Lifetree Biotech Co., Ltd., priority 2013, published 2014).

Tests used:
[1] = system: cartilage of SD rats (osteoblast defected (OD) models); assay: Cartilage regeneration in osteoblast defected (OD) models; type: in vivo; settings: 1 mg/kg orally once every two days for 4 weeks
Description: The cartilage regeneration activity of spinasterol glucoside derivatives were evaluated in osteoblast defected (OD) models which were widely used in study on the regeneration of degenerative articular cartilage. The cartilage of SD rats, at least 9 weeks of age, was destroyed by a […] drill, followed by suturing the muscle and lipid tissues so as to allow them to go about normal daily life. Then, 3-o-β-D-glucopyranosyl-spinasterol dissolved in distilled water was orally administered at a dose of 1 mg/kg once every two days for 4 weeks. Afterwards, the animals were sacrificed, and opened around the knee to take articular cartilage tissues, followed by decalcification for 4 weeks. The cartilage tissues thus softened were paraffinized, and dyed with Safran O solution to visualize the regeneration of the cartilage.

[2] = system: collagen-induced arthritis in DBA1/J mice; assay: Collagen-induced arthritis model in DBA1/J mice; type: in vivo; settings: FIG. 1

## CC[C@H](/C=C/[C@@H](C)[C@H]1CC[C@H]2C3=CC[C@H]4C[C@@H](O[C@@H]5O[C@H](CO)[C@@H](O)[C@H](O)[C@H]5O)CC[C@]4(C)[C@H]3CC[C@]12C)C(C)C [3-o-β-D-glucopyranosyl-spinasterol]
[1]; SD rats OD model
  levels of chondrocytes: greatly increased levels
  levels of mast cells: greatly increased levels
  levels of mucin: greatly increased levels
[1]; SD rats, cartilage destroyed by drill, compared to the control (b), FIG. 2
  regeneration of cartilage tissues (Safran O staining): significant regeneration of cartilage tissues
[2]; CII/CFA immunization, 10 μM/kg of weight three times a week for 28 days, observed 42 days later, compared to the positive control (CIA)
  degree of collagen-induced arthritis (clinical severity by paw swelling, verified by micro-CT morphometry): reduced in the degree of collagen-induced arthritis
[2]; collagen-induced arthritis, 10 μM/kg three times a week for 28 days
  regeneration of cartilage at the worn joint: showed regeneration of cartilage at the worn joint
